Data reported in patent US11214563B2 (JANSSEN PHARMACEUTICA NV, priority 2019, dated 2022).

Tests used:
[1] = Liver microsomal stability (extraction ratio); assay type: in vitro ADME; conditions: test compound 1 μM; 0.5 mg/mL liver microsomes; species not stated in Table 4 (method: mouse, rat, and human)
Protocol: Protocol for Liver Microsomal Stability (Extraction Ratio)
Liver Microsomal Stability. Microsomal stability studies (Chrovian et al, “H-Pyrrolo[3,2-b]pyridine GluN2B-Selective Negative Allosteric Modulators”. ACS Med Chem Lett. 2019 Jan. 10; 10(3):261-266) were conducted on a Biomek@ FX Robotic Liquid Handling Workstation (Beckman Coulter, Brea, Calif.), which consists of a 96-channel pipette head, a 12-position workstation deck, and a plate incubator. Test compounds (1 μM) were spiked in a reaction mix consisting of 100 mM potassium phosphate buffer (pH 7.4), 3 mM MgCl2, and 0.5 mg/mL liver microsomes from mouse, rat, and human (BD Gentest). The reaction was brought to 37° C. and initiated by adding NADPH to a final concentration of 1 mM. After mixing on the plate deck, […] aliquots were excised from the reaction plate at 0, 5, 10, 20, 40, and 60 min and quenched with four volumes of acetonitrile spiked with […] of the internal standard phenytoin. Quenched plates were centrifuged at 5700 rpm for 10 min at 4° C., and supernatant was diluted 1:3 in water before LC/MS/MS analysis. The compound half-lives were derived from plots of the ln of percent remaining compound over time to determine the intrinsic clearance. The predicted hepatic clearance was derived from the intrinsic clearance value using equations from the well-stirred model (Current Drug Metabolism, 2008, 9, 940-951), where no correction was made plasma protein binding and the blood to plasma concentration ratio was assumed to be one. The extraction ratio (ER) was calculated by dividing the predicted hepatic clearance by species blood flow (Q), where Q is 90, 55, and 21.7 mL/min/kg for mouse, rat and human, respectively

[2] = target: human GluN1/GluN2B NMDA receptors (Homo sapiens (Human), UniProt Q05586+Q13224); test: Cell-based calcium flux (FLIPR) assay on cloned human NR1/NR2B ion channels expressed in mammalian cells; conditions: standard assay, glutamate ~EC40, 10 μM glycine
Chain of human GluN1/GluN2B NMDA receptors (Homo sapiens (Human), UniProt Q05586+Q13224) (Q13224 27-1484, other chains not shown): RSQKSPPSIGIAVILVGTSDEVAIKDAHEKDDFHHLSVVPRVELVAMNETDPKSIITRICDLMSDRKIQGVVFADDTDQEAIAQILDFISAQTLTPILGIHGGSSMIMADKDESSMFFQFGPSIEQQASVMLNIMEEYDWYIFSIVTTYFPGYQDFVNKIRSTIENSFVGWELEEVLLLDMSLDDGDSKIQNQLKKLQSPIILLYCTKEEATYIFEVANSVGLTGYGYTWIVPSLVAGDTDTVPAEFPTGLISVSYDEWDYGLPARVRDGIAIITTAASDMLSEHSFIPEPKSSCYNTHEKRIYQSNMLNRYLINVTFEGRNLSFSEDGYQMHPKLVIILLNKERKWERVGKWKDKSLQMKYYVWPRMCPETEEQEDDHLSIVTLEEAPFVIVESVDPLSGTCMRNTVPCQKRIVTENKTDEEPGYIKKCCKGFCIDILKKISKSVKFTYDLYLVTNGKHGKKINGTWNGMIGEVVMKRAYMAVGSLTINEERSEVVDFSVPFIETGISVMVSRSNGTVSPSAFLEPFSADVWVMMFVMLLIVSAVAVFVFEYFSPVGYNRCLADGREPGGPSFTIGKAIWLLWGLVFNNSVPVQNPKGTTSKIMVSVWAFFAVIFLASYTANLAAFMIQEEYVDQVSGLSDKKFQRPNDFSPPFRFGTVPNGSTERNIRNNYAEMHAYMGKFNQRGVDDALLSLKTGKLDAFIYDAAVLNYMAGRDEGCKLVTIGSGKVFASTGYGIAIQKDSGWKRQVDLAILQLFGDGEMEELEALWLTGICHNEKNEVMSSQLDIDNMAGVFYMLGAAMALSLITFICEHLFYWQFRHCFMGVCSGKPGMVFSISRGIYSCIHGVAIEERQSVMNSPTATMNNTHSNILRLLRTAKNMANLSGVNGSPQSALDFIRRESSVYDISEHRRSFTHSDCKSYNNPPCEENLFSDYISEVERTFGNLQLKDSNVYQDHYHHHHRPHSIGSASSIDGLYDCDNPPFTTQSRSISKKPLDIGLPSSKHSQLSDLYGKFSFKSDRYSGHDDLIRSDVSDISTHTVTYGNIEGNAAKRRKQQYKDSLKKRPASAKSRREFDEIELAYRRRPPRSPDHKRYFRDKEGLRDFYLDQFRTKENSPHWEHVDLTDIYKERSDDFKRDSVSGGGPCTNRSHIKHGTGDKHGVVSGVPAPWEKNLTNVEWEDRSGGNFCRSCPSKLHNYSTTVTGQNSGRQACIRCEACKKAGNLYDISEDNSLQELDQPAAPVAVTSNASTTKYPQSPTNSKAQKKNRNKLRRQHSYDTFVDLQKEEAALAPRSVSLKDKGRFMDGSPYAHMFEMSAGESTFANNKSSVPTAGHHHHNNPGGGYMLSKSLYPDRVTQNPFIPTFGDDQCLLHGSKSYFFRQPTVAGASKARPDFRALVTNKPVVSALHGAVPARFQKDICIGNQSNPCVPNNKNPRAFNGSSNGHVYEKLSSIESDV
Protocol: (§1) Effects of Test Articles on Cloned Human NR1/NR2B Ion Channels Expressed in Mammalian Cells
(§2) NMDA receptors are ion channels that are highly permeable to Ca^2+ ions, rendering it possible to monitor NMDA receptor function using cell-based calcium flux assay. In this assay, co-agonists glutamate and glycine are added to cells heterologously expressing human GluN1/GluN2B NMDA receptors to initiate cellular Ca^2+ influx. The time course of the changes in intracellular calcium is measured using a fluorescent dye and a FLIPR (Fluorometric Imaging Plate Reader) device.
(§3) Twenty four hours before measurements, the expression of the NMDA receptors in the stable cell line is induced with Tet-On inducible system in the presence of a non-selective NMDA receptor blocker. On the day of the experiment, cell culture media is carefully washed and the cells are loaded with Calcium 5 Dye Kit (Molecular Devices) in dye loading buffer containing 137 mM NaCl, 4 mM KCl, 2 mM CaCl2), 0.5 mM MgCl2(standard assay) or 1.5 mM MgCl2 (HTS assay), 10 mM HEPES and 5 mM D-glucose; pH 7.4. After 1 h incubation at the room temperature, the dye is washed away with the assay buffer (137 mM NaCl (standard assay) or 150 mM (HTS assay), 4 mM KCl (standard assay) or 3 mM (HTS assay), 2 mM CaCl2), 0.01 mM EDTA, 10 mM HEPES and 5 mM D-glucose; pH 7.4) In the FLIPR TETRA reader, various concentrations of the test compounds are added to the cells for 5 min while fluorescence is monitored to detect potential agonist activity. Next, co-agonists, glutamate and glycine are added for another 5 minutes. The concentration of glutamate corresponding to ˜EC40 (standard assay) or EC40 (HTS assay) is used to maximize the assay's signal window and ability to detect NMDA receptor antagonists and negative allosteric modulators. A saturating concentration (10 μM) of glycine is also present in the assay. A non-selective NMDA receptor antagonist, (+)MK-801 is used as a positive control for antagonist activity. The fluorescent signal in the presence of test compounds is quantified and normalized to the signal defined by the appropriate control wells.

[3] = target: human GluN1/GluN2B NMDA receptors (Homo sapiens (Human), UniProt Q13224); test: as above; conditions: standard assay, glutamate ~EC40, 10 μM glycine
Chain of human GluN1/GluN2B NMDA receptors (Homo sapiens (Human), UniProt Q13224) (Q13224 27-1484, other chains not shown): as above
Protocol: as §1, §2, §3

| Extraction Ratio @ 1 μM [1] | IC50 [2] [nM] | IC50 [3] [nM] | Structure (SMILES) |
| --- | --- | --- | --- |
| 0.41 | 42 |  | CN(C)C(=O)Cn1ncc2ncc(-c3ccc(F)c(C(F)F)c3)nc21 [Example 10, 2-[6-[3-(Difluoromethyl)-4-fluoro-phenyl]pyrazolo[3,4-b]pyrazin-1-yl]-N,N-dimethyl-acetamide] |
| 0.54 | 36 |  | CN(C)C(=O)Cn1ncc2ncc(-c3ccc(Cl)c(C(F)F)c3)nc21 [Example 12, 2-[6-[4-Chloro-3-(difluoromethyl)phenyl]pyrazolo[3,4-b]pyrazin-1-yl]-N,N-dimethyl-acetamide] |
| <0.298 | 37 |  | O=C(Cn1ncc2ncc(-c3ccc(F)c(C(F)F)c3)nc21)N1CCC1 [Example 24, 1-(Azetidin-1-yl)-2-[6-[3-(difluoromethyl)-4-fluoro-phenyl]pyrazolo[3,4-b]pyrazin-1-yl]ethanone] |
| 0.45 |  | 59 | O=C(Cn1ncc2ncc(-c3ccc(F)c(OC(F)F)c3)nc21)N1CCC1 [Example 28, 1-(Azetidin-1-yl)-2-[6-[3-(difluoromethoxy)-4-fluoro-phenyl]pyrazolo[3,4-b]pyrazin-1-yl]ethanone] |
| <0.298 | 37 |  | O=C(Cn1ncc2ncc(-c3ccc(F)c(C(F)F)c3)nc21)N1CC(F)C1 [Example 32, 2-[6-[3-(Difluoromethyl)-4-fluoro-phenyl]pyrazolo[3,4-b]pyrazin-1-yl]-1-(3-fluoroazetidin-1-yl)ethanone] |
| 0.46 |  | 92 | O=C(Cn1ncc2ncc(-c3ccc(F)c(OC(F)F)c3)nc21)N1CC(F)C1 [Example 37, 2-[6-[3-(Difluoromethoxy)-4-fluoro-phenyl]pyrazolo[3,4-b]pyrazin-1-yl]-1-(3-fluoroazetidin-1-yl)ethanone] |
|  | > 3000 |  | CN(C)C(=O)Cn1ncc2ncc(-c3ccc(C(C)(F)F)cc3)nc21 [Example 53, 2-(6-(4-(1,1-Difluoroethyl)phenyl)-1H-pyrazolo[3,4-b]pyrazin-1-yl)-N,N-dimethylacetamide] |
